# Literature values as cited in PMC9436819 (JACC: Basic to Translational Science, 2022).
# Key:
# [1] = system: patients with obstructive HCM; design: method as in PMID 32871100; details: cited from earlier work
# [2] = design: method as in PMID 30044681, PMID 31035291; details: cited from earlier work
smiles,measurement,setting,value
CC(C)n1c(=O)cc(N[C@@H](C)c2ccccc2)[nH]c1=O [Mavacamten],LV outflow tract pressure gradients,[1],reduced
same,Improving exercise capacity and health status,[1]; vs placebo,superior to placebo
same,Time required to reach a steady state,[2],6 weeks
